Experimental data: patent US9198902B2, “1,4-dihydropyridine-3,5-dicarboxylate derivatives and preparation and use thereof” (Xuanzhu Pharma Co., Ltd., priority 2011, dated 2015)
Structures can show the parent of a compound that is named as a salt.

Legend:
[1] = system: T-type calcium ion channels; assay: T-type calcium ion channel inhibition, whole cell patch-clamp (electrophysiological method); format: cell-based; conditions: cerebral cortex nerve cells of suckling mice, room temperature
Text: (§1) 2. Test for L- and T-Type Calcium Ion Channel Inhibitors
(§2) This experiment was assigned to HD Biosciences Corporation (Shanghai) and conducted with an electrophysiological method.
It was done with reference to the method as disclosed by Jung-Ha Lee, et. al., “Identification of T-Type α1H Ca^2+ Channels (Cav3.2) in Major Pelvic Ganglion Neurons”.
(§3) Test samples were weighed accurately and diluted in a 3-fold stepwise dilution so that the final concentrations were as follows:
T-type test: Cerebral cortex nerve cells were separated from suckling mice, and used in the experiment after 7 days of cultivation. The ionic current of a single cell was recorded by applying the whole cell patch-clamp technique at room temperature, wherein the clamp current was −90 mV, and the pulse interval was 10 s. The inward current (the activiation was started from −20 mV) is the T-type calcium current (ICa,T).
(§4) The electrode inner liquid (mM): CsCl 120, TEA-Cl 20, CaCl2 1, EGTA-CsOH 11, Hepes 10, Mg-ATP 5, pH7.3;

[2] = biological target: L-type calcium ion channels (Cavia porcellus, UniProt O35505); assay: L-type calcium ion channel inhibition, whole cell patch-clamp (electrophysiological method); format: cell-based; conditions: left ventricle muscle cells of guinea pigs, room temperature
Text: as §1, §2
It was done with reference to the method as disclosed by Jung-Ha Lee, et. al., “Identification of T-Type α1H Ca^2+ Channels (Cav3.2) in Major Pelvic Ganglion Neurons”. J Neurophysiol 87:2844-2850, 2002.
as §3
L-type test: Left ventricle muscle cells were separated from guinea pigs. The cells were used in the experiment in eight hours. The ionic current of a single cell was recorded by applying the whole cell patch-clamp technique at room temperature, wherein the clamp current was −80 mV, and the pulse interval was 10 s. The inward current (the activiation was started from 0 mV) is the L-type calcium current (ICa,L).
as §4
The electrode outer liquid (mM): NaCl 135, CsCl 5.4, CaCl2 1.8, MgCl2 1, Hepes 5, glucose 10, pH7.4.

[3] = system: SHRs (spontaneous hypertensive rats); assay: In vivo hypotensive activity in SHRs, tail-pinch method; conditions: male SHRs, 10 mg/kg po; for Max ΔMAP (mmHg ± SEM): measured 1-24 h after administration
Procedure: The in vivo hypotensive activity assay was conducted according to the tail-pinch method with reference to Folia pharmacol. Japon. 97, 115-126 (1991).
The agents to be tested, lercanidipine, barnidipine, amlodipine, azelnidipine, efonidipine and manidipine, were accurately weighed respectively. Each agent was dissolved in DMSO. To the resulting solution was added 50% of the corresponding volume of PEG400 so that the final concentration of each agent was 1 mg/ml, and the final concentration of DMSO was 3%.
The compounds to be tested, Compound 18, Compound 21, Compound 22, Compound 23, and Compound 26, were accurately weighed respectively. Each compound was dissolved in DMSO. To the resulting solution was added 50% of the corresponding volume of PEG400 so that the final concentration of each compound was 1 mg/ml, and the final concentration of DMSO was 3%.
The compounds to be tested, Compound 19 and Compound 20, were accurately weighed respectively. Each compound was suspended in 0.5% MC so that the final concentration of each compound was 1 mg/ml.
The test for hypotensive effect: Male SHRs (spontaneous hypertensive rats) were randomly allocated into a control group and an administration group. The administration was an intragastric administration. One hour before the administration, the measured blood pressure was used as the pre-administration basic blood pressure value. After the administration, the contractive pressure, the heart rate and the mean arterial pressure of SHRs at six time points, i.e. 1, 2, 4, 6, 8 and 24 hours after the administration, were measured with a Softron BP-98A non-invasive blood pressure instrument respectively.

SHRs = assay: In vivo hypotensive activity in SHRs, DSI implant-type remote blood pressure measurement; parameters: species or system rats; conditions: male SHRs, 10 mg/kg po, monitored 24 hours
Procedure: The in vivo hypotensive activity assay was conducted according to DSI experimental procedure with reference to page 56 of WO 2009/056934 A1. The agents to be tested, lercanidipine, barnidipine, amlodipine, azelnidipine, efonidipine and manidipine, were accurately weighed. Each agent was dissolved in DMSO. To the resulting solution was added 50% of the corresponding volume of PEG400 so that the final concentration of each agent was 1 mg/ml, and the final concentration of DMSO was 3%. […] Each compound was dissolved in DMSO. […] The compound to be tested, Compound 15, was accurately weighed. This compound was dissolved in DMSO. […] The compound to be tested, Compound 16 (optical activity)+108.34° and Compound 17 (optical activity optical activity)+36.4°, were accurately weighed. […] The test for hypotensive effect: Male SHRs were subjected to an abdominal aorta implantation using an implant, and used in the test after 7-10 days of recovery. The administration was an intragastric administration. One hour before the administration, the measured blood pressure was used as the pre-administration basic blood pressure value. After the administration, SHRs, allowed free access to the diet, were continuously monitored with a DSI implant-type blood pressure remote measurement system for 24 hours.

Human Cav3.2 = Human Cav3.2 (Homo sapiens, UniProt O95180); assay: T-type calcium ion channel inhibition, FLIPR method; format: cell-based; conditions: Human Cav3.2 in stable HEK-293 cells, FLIPR Calcium 4 No-Wash kit
Procedure: T-type tests for Compound 19 and Compound 20 were assigned to Chan Test Corporation, and conducted according to the FLIPR experimental procedure as follows.
It was done with reference to the method disclosed on page 48 of WO 2009/056934 A1.
Samples were weighed accurately and diluted in a 3-fold stepwise dilution so that the final concentrations were as follows: 100 μM, 30 μM, 10 μM, 3 μM, 1 μM, 0.3 μM, 0.1 μM, 0.03 μM, 0.01 μM, 0.003 μM.
T-type test: Human Cav3.2 was cloned in stable HEK-293 cells, and then the operation was conducted with FLIPR Calcium 4 No-Wash kit. The cell medium was removed. To an HEPES solution free of calcium ion was added 20 μL dye to dye for 30 minutes at a temperature of 37° C. This buffer free of calcium ion included NaCl, 137 mM; KCl, 0.5 mM; MgCl2 mM, 1 mM; HEPES, 10 mM; glucose, 10 mM. The pH value was adjusted to 7.4 with NaOH. After 30 minutes, the buffer was placed at room temperature for 30 minutes. Then 5 μL of compound to be tested, solvent or blank control were added. The compound was formulated with a buffer containing calcium ion, said buffer including KCl, 135 mM; CaCl2, 10.8 mM; MgCl2, 1 mM; HEPES, 10 mM; glucose, 10 mM. The collected fluorescence values were analyzed and the inhibition ratios were calculated.

L-type calcium ion channels, sequence (O35505 whole entry): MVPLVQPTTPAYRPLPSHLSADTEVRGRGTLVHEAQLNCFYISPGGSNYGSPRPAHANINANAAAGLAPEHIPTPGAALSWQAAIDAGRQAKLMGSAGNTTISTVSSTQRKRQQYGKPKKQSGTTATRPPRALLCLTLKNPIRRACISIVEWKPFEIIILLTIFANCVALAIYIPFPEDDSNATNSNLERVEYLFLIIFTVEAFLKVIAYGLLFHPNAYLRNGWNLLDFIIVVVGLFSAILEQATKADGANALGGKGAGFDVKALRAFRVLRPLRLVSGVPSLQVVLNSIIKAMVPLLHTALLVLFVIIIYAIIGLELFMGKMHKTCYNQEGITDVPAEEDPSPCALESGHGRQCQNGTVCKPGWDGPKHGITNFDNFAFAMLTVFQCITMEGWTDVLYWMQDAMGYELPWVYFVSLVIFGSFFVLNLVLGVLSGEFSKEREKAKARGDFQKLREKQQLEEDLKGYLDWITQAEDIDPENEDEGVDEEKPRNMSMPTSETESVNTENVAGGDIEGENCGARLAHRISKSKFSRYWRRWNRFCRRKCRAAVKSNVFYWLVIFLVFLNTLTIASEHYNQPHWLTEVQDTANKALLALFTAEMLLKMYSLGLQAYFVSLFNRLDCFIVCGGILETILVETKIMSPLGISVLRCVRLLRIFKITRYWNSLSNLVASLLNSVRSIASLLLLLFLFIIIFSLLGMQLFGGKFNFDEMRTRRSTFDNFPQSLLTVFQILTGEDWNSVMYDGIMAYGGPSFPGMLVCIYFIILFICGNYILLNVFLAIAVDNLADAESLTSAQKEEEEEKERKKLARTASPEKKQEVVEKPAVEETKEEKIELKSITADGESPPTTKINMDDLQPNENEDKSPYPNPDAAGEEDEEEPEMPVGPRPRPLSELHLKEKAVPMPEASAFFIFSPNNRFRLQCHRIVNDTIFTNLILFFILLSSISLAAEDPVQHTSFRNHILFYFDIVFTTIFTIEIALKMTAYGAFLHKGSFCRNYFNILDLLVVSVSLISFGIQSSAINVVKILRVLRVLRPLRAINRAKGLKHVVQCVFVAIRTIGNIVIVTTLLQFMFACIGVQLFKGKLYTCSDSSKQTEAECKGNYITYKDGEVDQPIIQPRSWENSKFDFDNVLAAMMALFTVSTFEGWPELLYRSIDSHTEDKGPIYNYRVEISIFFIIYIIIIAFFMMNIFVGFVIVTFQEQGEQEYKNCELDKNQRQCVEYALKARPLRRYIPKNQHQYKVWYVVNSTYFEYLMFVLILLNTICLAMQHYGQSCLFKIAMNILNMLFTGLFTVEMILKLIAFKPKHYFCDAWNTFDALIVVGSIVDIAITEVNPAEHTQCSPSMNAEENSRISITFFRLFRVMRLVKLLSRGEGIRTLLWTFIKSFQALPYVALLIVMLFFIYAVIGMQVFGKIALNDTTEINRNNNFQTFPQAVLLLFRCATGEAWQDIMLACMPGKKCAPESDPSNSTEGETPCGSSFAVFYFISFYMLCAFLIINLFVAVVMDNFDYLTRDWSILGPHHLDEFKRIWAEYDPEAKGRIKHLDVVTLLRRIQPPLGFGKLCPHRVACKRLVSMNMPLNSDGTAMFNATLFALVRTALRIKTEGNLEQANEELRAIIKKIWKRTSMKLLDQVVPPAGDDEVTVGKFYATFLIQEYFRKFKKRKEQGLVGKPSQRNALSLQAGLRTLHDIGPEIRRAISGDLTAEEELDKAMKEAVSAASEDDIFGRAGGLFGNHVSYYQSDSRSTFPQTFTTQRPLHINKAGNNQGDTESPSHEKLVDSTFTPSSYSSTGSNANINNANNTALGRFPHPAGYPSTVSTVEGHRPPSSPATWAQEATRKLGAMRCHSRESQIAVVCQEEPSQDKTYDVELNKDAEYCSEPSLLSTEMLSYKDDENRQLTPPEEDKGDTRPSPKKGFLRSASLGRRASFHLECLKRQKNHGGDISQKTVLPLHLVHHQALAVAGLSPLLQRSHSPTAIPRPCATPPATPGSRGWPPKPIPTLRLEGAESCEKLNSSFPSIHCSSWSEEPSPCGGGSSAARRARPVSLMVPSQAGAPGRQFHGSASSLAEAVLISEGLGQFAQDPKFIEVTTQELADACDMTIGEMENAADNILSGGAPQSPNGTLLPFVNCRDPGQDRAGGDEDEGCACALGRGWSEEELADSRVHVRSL
Human Cav3.2, sequence (O95180 whole entry): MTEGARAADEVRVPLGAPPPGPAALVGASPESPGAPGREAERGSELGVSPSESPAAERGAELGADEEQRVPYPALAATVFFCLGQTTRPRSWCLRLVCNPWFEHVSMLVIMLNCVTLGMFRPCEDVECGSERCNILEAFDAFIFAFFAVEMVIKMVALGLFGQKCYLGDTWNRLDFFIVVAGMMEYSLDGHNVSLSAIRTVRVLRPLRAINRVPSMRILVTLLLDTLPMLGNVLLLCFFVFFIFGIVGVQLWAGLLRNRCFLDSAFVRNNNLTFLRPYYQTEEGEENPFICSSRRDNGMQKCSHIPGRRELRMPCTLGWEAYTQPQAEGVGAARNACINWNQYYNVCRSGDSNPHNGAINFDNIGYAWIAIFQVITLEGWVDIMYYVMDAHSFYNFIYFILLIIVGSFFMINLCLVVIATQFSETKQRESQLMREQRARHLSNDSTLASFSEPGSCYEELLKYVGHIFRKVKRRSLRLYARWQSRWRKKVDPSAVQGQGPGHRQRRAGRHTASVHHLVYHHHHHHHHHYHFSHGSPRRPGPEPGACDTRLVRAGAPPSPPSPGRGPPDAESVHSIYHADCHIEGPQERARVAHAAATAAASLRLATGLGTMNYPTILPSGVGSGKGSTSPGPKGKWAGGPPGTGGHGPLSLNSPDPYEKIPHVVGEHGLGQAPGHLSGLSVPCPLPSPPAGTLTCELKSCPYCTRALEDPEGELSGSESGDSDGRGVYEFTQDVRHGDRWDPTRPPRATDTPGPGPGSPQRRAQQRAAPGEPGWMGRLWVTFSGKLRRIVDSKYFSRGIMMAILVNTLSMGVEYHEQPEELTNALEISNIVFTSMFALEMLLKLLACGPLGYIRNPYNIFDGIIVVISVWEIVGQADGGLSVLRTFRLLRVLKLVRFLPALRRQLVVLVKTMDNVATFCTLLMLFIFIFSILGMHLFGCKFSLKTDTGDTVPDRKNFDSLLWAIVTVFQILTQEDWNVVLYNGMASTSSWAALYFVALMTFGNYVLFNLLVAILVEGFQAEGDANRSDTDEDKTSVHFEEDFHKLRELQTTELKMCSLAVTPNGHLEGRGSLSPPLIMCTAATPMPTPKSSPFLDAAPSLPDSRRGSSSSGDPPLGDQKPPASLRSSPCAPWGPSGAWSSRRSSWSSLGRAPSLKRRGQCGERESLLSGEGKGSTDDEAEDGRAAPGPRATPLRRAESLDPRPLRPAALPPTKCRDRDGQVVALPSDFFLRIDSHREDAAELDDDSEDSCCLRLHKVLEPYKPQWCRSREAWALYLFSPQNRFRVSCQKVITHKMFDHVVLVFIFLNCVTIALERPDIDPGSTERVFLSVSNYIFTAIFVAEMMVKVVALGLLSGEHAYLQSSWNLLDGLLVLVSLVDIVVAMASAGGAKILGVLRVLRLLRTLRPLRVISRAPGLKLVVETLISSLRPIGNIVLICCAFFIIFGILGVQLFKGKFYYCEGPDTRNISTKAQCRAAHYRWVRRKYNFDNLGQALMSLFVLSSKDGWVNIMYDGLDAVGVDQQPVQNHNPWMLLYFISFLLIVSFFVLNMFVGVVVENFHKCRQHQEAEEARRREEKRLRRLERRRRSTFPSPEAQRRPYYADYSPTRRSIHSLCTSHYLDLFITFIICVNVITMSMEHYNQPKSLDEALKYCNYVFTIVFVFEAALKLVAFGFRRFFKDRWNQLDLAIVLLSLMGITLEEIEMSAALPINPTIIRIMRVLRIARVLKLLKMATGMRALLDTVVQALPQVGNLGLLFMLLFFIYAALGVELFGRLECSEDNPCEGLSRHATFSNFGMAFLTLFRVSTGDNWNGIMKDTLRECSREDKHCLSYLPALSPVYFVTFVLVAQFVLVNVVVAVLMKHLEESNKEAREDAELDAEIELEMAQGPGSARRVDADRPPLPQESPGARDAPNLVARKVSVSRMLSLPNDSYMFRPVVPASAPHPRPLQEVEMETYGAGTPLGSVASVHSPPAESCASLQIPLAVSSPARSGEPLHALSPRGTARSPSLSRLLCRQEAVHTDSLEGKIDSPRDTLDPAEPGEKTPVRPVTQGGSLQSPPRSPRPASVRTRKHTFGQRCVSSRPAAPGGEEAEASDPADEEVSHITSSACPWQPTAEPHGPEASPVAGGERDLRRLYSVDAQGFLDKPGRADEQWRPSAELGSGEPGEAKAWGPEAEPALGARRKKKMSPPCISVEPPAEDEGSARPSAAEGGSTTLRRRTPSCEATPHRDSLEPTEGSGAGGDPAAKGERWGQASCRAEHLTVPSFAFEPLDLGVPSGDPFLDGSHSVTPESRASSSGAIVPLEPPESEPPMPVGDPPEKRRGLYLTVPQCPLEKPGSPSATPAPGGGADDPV

Row | IC50 [1] [µM] | IC50 [2] [µM] | IC50 (Human Cav3.2) [µM] | SMILES | ΔMAP > 20 (mmHg) Duration time of action [3] [h] | Max ΔMAP (mmHg ± SEM) [3] [mmHg] | Max ΔMAP (mmHg ± SEM) (SHRs) [mmHg] | ΔMAP > 20 (mmHg) Duration time of action (SHRs) [h]
1 | 3.2 | – | – | COC(=O)C1=C(C)NC(C)=C(C(=O)OC2(C)CCN(CCC(c3ccccc3)c3ccccc3)C2)C1c1cccc([N+](=O)[O-])c1 (centres unmarked) [Compound 2 hydrochloride, 3-[1-(3,3-diphenylpropyl)-3-methylpyrrolidin-3-yl]5-methyl 2,6-dimethyl-4-(3-nitrophenyl)-1,4-dihydropyridine-3,5-dicarboxylate] | – | – | – | –
2 | > 10 | 0.84 | – | COC(=O)C1=C(C)NC(C)=C(C(=O)OC(C)(C)CN(C)CCC(c2ccccc2)c2ccccc2)C1c1cccc([N+](=O)[O-])c1 (centres unmarked) [lercanidipine, reference compound] | 23 | 77 ± 15 | 54 ± 7 | 14
3 | 2.28 | 0.59 | 1.95 | COC(=O)C1=C(C)NC(C)=C(C(=O)O[C@@]2(C)CCN(CCC(c3ccccc3)c3ccccc3)C2)[C@H]1c1cccc([N+](=O)[O-])c1 [Compound 16, (S)-3-[(S)-1-(3,3-diphenylpropyl)-3-methylpyrrolidin-3-yl] 5-methyl 2,6-dimethyl-4-(3-nitrophenyl)-1,4-dihydropyridine-3,5-dicarboxylate] | – | – | 57 ± 5 | 11
4 | – | 1.11 | > 100 | CCOC(=O)C1=C(COCCN)NC(C)=C(C(=O)OC)C1c1ccccc1Cl (centres unmarked) [amlodipine, reference compound] | 24 | 74 ± 8 | 48 ± 13 | 16
5 | 8.15 | 0.58 | 30.8 | COC(=O)C1=C(C)NC(C)=C(C(=O)O[C@H]2CCN(Cc3ccccc3)C2)[C@H]1c1cccc([N+](=O)[O-])c1 [barnidipine, reference compound] | 14 | 81 ± 10 | 60 ± 6 | 9

Row | SMILES | IC50 [1] [µM] | IC50 [2] [µM] | IC50 (Human Cav3.2) [µM] | ΔMAP > 20 (mmHg) Duration time of action [3] [h] | Max ΔMAP (mmHg ± SEM) [3] [mmHg] | Max ΔMAP (mmHg ± SEM) (SHRs) [mmHg] | ΔMAP > 20 (mmHg) Duration time of action (SHRs) [h]
6 | COC(=O)C1=C(C)NC(C)=C(C(=O)OC2(C)CCN(Cc3ccccc3)C2)C1c1cccc([N+](=O)[O-])c1 (centres unmarked) [Compound 1 hydrochloride, 3-(1-benzyl-3-methylpyrrolidin-3-yl) 5-methyl 2,6-dimethyl-4-(3-nitrophenyl)-1,4-dihydropyridine-3,5-dicarboxylate] | 4.47 | – | – | – | – | – | –
